The record followed here is US20140371165A1, “Identification of NSC23925 Isomers to Reverse Multidrug Resistance in Human Cancers” (priority 2012, published 2014).

One data set concerns MCF-7adr. Description: M30-Apoptosense ELISA apoptosis assay in MCF-7adr. Format: cell-based, human. As to conditions: NSC23925b 1 μM with doxorubicin 0.5 μM, 72 hours. On the procedure:
(§1) Apoptosis was evaluated using the M30-Apoptosense ELISA assay kit (Peviva AB, Bromma, Sweden) according to the manufacturer's instructions. For the doxorubicin and NSC23925b treatment, MCF-7adr or SW480TR cells were seeded at 8,000 cells/per well in a 96-well plate for 24 hours before treatment. The cells were then treated with 0.5 μM of doxorubicin, 1 μM of NSC23925b, or a combination of the two drugs for an additional 72 hours. The cells were then lysed by an additional […] of 10% NP40 per well, following the manufacturer's instructions for apoptosis assay.
(§2) The effect of NSC23925b on the doxorubicin induction of apoptosis was assessed in MCF-7adr or SW480TR. cell lines. Cells were treated with either doxorubicin (0.5 μM) alone, NSC23925b (1 μM) alone, or a combination of doxorubicin and NSC23925b for 72 hours. Apoptosis was scored using the M30-Apoptosense ELISA assay.

The next data set has as its system SW480TR. Description: M30-Apoptosense ELISA apoptosis assay in SW480TR. In kind it is cell-based, human. The note with it: NSC23925b 1 μM with doxorubicin 0.5 μM, 72 hours. On the procedure:
as §1, §2

In data set [1] the test system is SKOV-3TR xenograft tumors. Description: SKOV-3TR xenograft tumor growth in nude mice. Here is the method: The Crl:SHO-Prkdc^SCIDHr^hr nude female mice at approximately 3-4 weeks of age were purchased from The Charles River Laboratories (Ann Arbor, Mich.). Animal studies were carried out with protocols approved by the Massachusetts General Hospital Subcommittee on Research Animal Care (SRAC). To determine the effect of NSC23925b on paclitaxel sensitivity in xenograft model, 5×10^6 SKOV-3TR cells were injected subcutaneously with matrigel (BD Biosciences, San Jose, Calif.) on day one. Two weeks after injection, the mice were divided into four groups to start the treatments. Group one was received intraperitoneal (i.p) injection with normal saline, group two with paclitaxel (20 mg/kg), group three with NSC23925b (40 mg/kg). […] All four groups were treated twice a week for two weeks. The health of the mice and evidence of tumor growth were examined daily. Tumors were measured twice a week with a digital caliper. Tumor volume (mm^3) was calculated as (W^2×L)/2, where W is width and L is length. The curve of tumor growth was drawn according to tumor volume by using of GraphPad PRISM 4 software.
To further evaluate the effects of NSC23925b and paclitaxel combination therapy on the tumor growth of resistant cells, the growth of xenograft tumors were examined. A well-characterized ovarian cancer MDR cell line SKOV-3TR was chosen for in vivo studies. […] Tumors were measured twice a week with a digital caliper. Tumor volume (mm^3) was calculated as (W^2×L)/2, where W is width and L is length (FIG. 5A). Representative images of dissected tumor tissues from treated nude mice.

Structures can show the parent of a compound that is named as a salt.

For `COc1ccc(-c2cc([C@H](O)[C@H]3CCCCN3)c3ccccc3n2)cc1` [NSC23925b, (2-(4-methoxyphenyl)quinolin-4-yl)(piperidin-2-yl)methanol hydrochloride], the “cell death / apoptosis, combination versus either drug alone” value in the data set on MCF-7adr and in the data set with SW480TR was “significantly greater cell death” in each case. Besides, in data set [1] (NSC23925b 50 mg/kg with paclitaxel), the “reversal of resistance to paclitaxel in xenograft model” value was “almost completely reverse resistance to paclitaxel”. The “toxicity on the basis of animal weight and mortality” value in data set [1] (NSC23925b administered alone) is given as “no significant toxicity”. In data set [1] (NSC23925b combined with paclitaxel), the “effect on paclitaxel-induced toxicity” value is listed as “reducing paclitaxel-induced toxicity in some animals”. Further, in data set [1] (NSC23925b with paclitaxel (20 mg/kg) i.p. twice a week for two weeks), the “inhibitory effect on tumor growth, combination versus single agents” value is listed as “significantly greater inhibitory effect”. Also, in data set [1] (alone, i.p. twice a week for two weeks, paclitaxel 20 mg/kg or NSC23925b 40 mg/kg), the “effect on paclitaxel resistant tumor cell growth, single agent” value is given as “no significant effects”.
